Marks after values point to notes of the source that are not given here.
Assays:
Type in all cases: in vivo, pigs
[1] = test system: ENPP2, LPAR3 and PTGS2 mRNA (LPA signalling pathway) in the uterus; test: Quantitative PCR of key molecules in the LPA signalling pathway in gilt uteri (Example 4); conditions: gilts, 12 μg/kg·BW
Procedure: The gilts in the batch farrowing with FTAI and the gilts in the batch farrowing with FTAI supplementing once with 1-[bis(4-cyanophenyl)methyl]-1,2,4-triazole (12 μg/kg·BW) were slaughtered. The gilts were slaughtered 16 days after mating, with 4 gilts slaughtered per group. By judging the number of corpora lutea on the ovary, the number of ovulated oocytes (each corpus luteum represented an ovulation point) was confirmed.
Uteri were isolated from the gilts for RNA extraction, reverse transcription and quantitative PCR detection of several key molecules in the LPA signalling pathway, i.e., detection of ENPP2 (a gene for the expression of ATX, the key enzyme of LPA synthesis), LPAR3 (LPA receptor gene), and PTGS2 (a key gene downstream of LPAR).

[2] = test system: Landrace x Large White binary sows; test: Pregnancy, farrowing rate, litter size and piglet index of gilts in batch farrowing with FTAI (Example 3)
Procedure: The term “farrowing rate”, as used herein, was calculated as the percentage of the number of farrowed sows divided by the number of mated gilts and sows.
For example, in the case of a certain batch of sows, the farrowing rate=the number of farrowing sows/the number of mated gilts and sows×100%.
The term “Piglet Index (PI)”, as used herein, refers to the total number of live piglets born per 100 gilts or sows that have been naturally mated or artificially inseminated. The calculation method is the average number of born alive per litter multiplied by the farrowing rate and then multiplied by the total gilts or sows (100).
The breed of the gilts used in this example was Landrace x Large White binary sows, the reserve sows were randomly divided into the following 4 groups, and the treatment method for each group was as follows:
batch farrowing with FTAI: the sows were fed with an altrenogest oral solution at 20 mg/gilt at the same time every day, for 18 days; PMSG at 1000 IU/gilt was injected intramuscularly 42 h after the last feeding with altrenogest, GnRH at 100 μg/gilt was further injected intramuscularly 80 h after the intramuscular injection of PMSG, a first timed insemination was performed 24 h after the injection of GnRH, and a second timed insemination was performed after 24 h.
Treatment group 1 (batch farrowing with FTAI, with supplementing with 1-[bis(4-cyanophenyl)methyl]-1,2,4-triazole (12 μg/kg·BW, orally once)): The hormone treatment and mating schemes for gilts were the same as those for gilts in the batch farrowing with FTAI. The gilts were administered orally once with 1-[bis(4-cyanophenyl)methyl]-1,2,4-triazole at 12 μg/kg·BW 8 h after the injection of PMSG.
Treatment group 2 (batch farrowing with FTAI, with supplementing with 1-[bis (4-cyanophenyl)methyl]-1,2,4-triazole (12 μg/kg·BW, orally twice)): The hormone treatment and mating schemes for gilts were the same as those for gilts in the batch farrowing with FTAI. The gilts were administered orally once with 1-[bis(4-cyanophenyl)methyl]-1,2,4-triazole at 12 μg/kg·BW 8 h after the injection of PMSG, and then orally once with 1-[bis(4-cyanophenyl)methyl]-1,2,4-triazole at 12 μg/kg·BW after another 24 h.
Treatment group 3 (batch farrowing with FTAI, supplemented with 1-[bis(4-cyanophenyl)methyl]-1,2,4-triazole (20 μg/kg·BW, orally in a single dose)): The hormone treatment and mating schemes for gilts were the same as those for gilts in the batch farrowing with FTAI. The gilts were administered orally once with 1-[bis(4-cyanophenyl)methyl]-1,2,4-triazole at 20 μg/kg·BW 8 h after the injection of PMSG.
The farrowing rate and piglet index of sows in the different treatment groups were calculated as follows:
wherein Piglet Index (PI), a comprehensive index to measure the overall reproductive performance of a sow population at present in production, refers to the number born alive from every 100 gilts or sows, who have undergone natural mating or artificial insemination.

[3] = test system: Landrace x Large White binary sows; test: Number of ovulated oocytes (corpora lutea) in gilts slaughtered 16 days after mating (Example 4); conditions: single low dose 12 μg/kg·BW, compared with batch farrowing with FTAI
Procedure: The breed of the gilts used in this experiment was Landrace x Large White binary sows, the gilts were randomly divided into the following 3 groups, and the treatment method for each group was as follows:
batch farrowing with FTAI: the gilts were fed with an altrenogest oral solution at 20 mg/gilt at the same time every day, for 18 days; PMSG at 1000 IU/gilt was injected intramuscularly 42 h after the last feeding with altrenogest, GnRH at 100 μg/gilt was injected intramuscularly after another 80 h, the first timed insemination was performed 24 h after the injection of GnRH, and the second timed insemination was performed after 24 h.
Treatment group 1 (batch farrowing with FTAI, with supplementing with 1-[bis(4-cyanophenyl)methyl]-1,2,4-triazole (12 μg/kg·BW, orally in a single dose): The hormone treatment and mating schemes for gilts were the same as those for gilts in the batch farrowing with FTAI. The gilts were administered orally once with 1-[bis(4-cyanophenyl)methyl]-1,2,4-triazole at 12 μg/kg·BW 8 h after the injection of PMSG.
The gilts in the batch farrowing with FTAI and the gilts in the batch farrowing with FTAI supplementing once with 1-[bis(4-cyanophenyl)methyl]-1,2,4-triazole (12 μg/kg·BW) were slaughtered. The gilts were slaughtered 16 days after mating, with 4 gilts slaughtered per group. […]

[4] = Example 3, low-dose (treatment groups 1, 2, and 3), compared with batch farrowing with FTAI
[5] = Example 3, treatment group 1 (12 μg/kg·BW orally once), compared with batch farrowing with FTAI
[6] = Example 3, treatment groups 2 and 3
[7] = Example 3 Treatment group 1: 12 μg/kg·BW orally once, gilts
[8] = Example 3 Treatment group 2: 12 μg/kg·BW orally twice, 24 h apart, gilts
[9] = Example 3 Treatment group 3: 20 μg/kg·BW orally in a single dose, gilts

For N#Cc1ccc(C(c2ccc(C#N)cc2)n2cncn2)cc1 [1-[bis(4-cyanophenyl)methyl]-1,2,4-triazole], the “Enpp2, Lpar3 and ptgs2 mRNA levels in the uteri” value ([1]; compared with batch farrowing with FTAI group) was “significantly higher”, the “Enpp2, Lpar3 and ptgs2 mRNA levels in the uteri” value ([1]; compared with natural estrus group) was “no significant difference” and the estrus rate ([2]; Example 3, 20 μg/kg·BW group compared with 12 μg/kg·BW group) was “slightly lower”. For the same molecule, the Piglet index [2, 4] was “significantly increased”, the farrowing rate [2, 4] was “significantly increased” and the pregnancy rate [2, 4] was “significantly increased”. The Healthy litter size [2, 5] was “significantly higher”, the number born alive [2, 5] was “significantly higher” and the Healthy litter size [2, 6] was “increasing trend”. The number born alive [2, 6] was “increasing trend”, the estrus rate ([2]; Example 3, treatment groups with different doses, compared with batch farrowing with FTAI) was “no significant difference” and the “Delivery rate (%)” value [2, 7] was 88.00^b %. For the same molecule, the “Estrus rate (%)” value [2, 7] was 92.00%, the Healthy litter size [2, 7] was 12.12 ± 0.32^b and the Live litter size [2, 7] was 12.44 ± 0.30^b. For the same molecule, the Piglet index [2, 7] was 1094, the “Pregnancy rate (%)” value [2, 7] was 92.00^b % and the “Stillborn + mummy” value [2, 7] was 1.80 ± 0.22. For the same molecule, the “Total number born litter size” value [2, 7] was 13.96 ± 0.30, the Weak litter [2, 7] was 0.24 ± 0.10 and the “Delivery rate (%)” value [2, 8] was 83.33^b %. The “Estrus rate (%)” value [2, 8] was 93.75%, the Healthy litter size [2, 8] was 11.72 ± 0.43^a and the Live litter size [2, 8] was 12.00 ± 0.45^a. The Piglet index [2, 8] was 1000, the “Pregnancy rate (%)” value [2, 8] was 95.83^b % and the “Stillborn + mummy” value [2, 8] was 1.56 ± 0.16. For the same molecule, the “Total number born litter size” value [2, 8] was 13.76 ± 0.62, the Weak litter [2, 8] was 0.28 ± 0.09 and the “Delivery rate (%)” value [2, 9] was 81.48^b %. The “Estrus rate (%)” value [2, 9] was 88.89%, the Healthy litter size [2, 9] was 11.76 ± 0.37^a and the Live litter size [2, 9] was 12.04 ± 0.42^a. For the same molecule, the Piglet index [2, 9] was 981, the “Pregnancy rate (%)” value [2, 9] was 85.19^b % and the “Stillborn + mummy” value [2, 9] was 1.88 ± 0.39. The “Total number born litter size” value [2, 9] was 14.04 ± 0.53, the Weak litter [2, 9] was 0.40 ± 0.10 and the “live piglets (weaned piglets) increased by every 100 gilts” value ([2]; per 100 gilts, method of the disclosure versus batch farrowing with FTAI) was 190 live piglets. The “number of ovulated oocytes” value [3] was “no significant effect”.

— patent US12678488B2, “Batch management method for improving farrowing rate or number of piglets born alive in swine” (priority 2024, dated 2026)
